Reference: patent EP0210284B1, “1,3-Dithiol-2-ylidene derivatives” (priority 1985, dated 1987)
Read-outs that look alike come from different tables or passages of the source.

Tests used:
[1] = tested on: Acute Liver Injury Induced by Carbon Tetrachloride; experiment: Protective effect on acute liver injury induced by carbon tetrachloride; assay type: in vivo, mice (ddY mice); details: for Liver Damage Index: 50mg/kg orally in olive oil 6 hours before carbon tetrachloride (0.05ml/kg orally), visual score 0: normal, 2: slightly, 4: distinctly, 6: remarkably injured, n=5, CCl4 alone 6.0; for inhibition in vivo at 50 mg/kg: Mus musculus, po, 50mg/kg orally 6 hours before carbon tetrachloride (0.05ml/kg orally), CCl4 alone 0, Normal 100
Description: A test compound was dissolved or suspended in olive oil and administered orally at a dose of 50mg/kg to mice (ddY mice, ? , 23 ± 2g, n=5). After 6 hours, carbon tetrachloride (0.05ml/kg) was administered orally. 24 Hours after the administration of carbon tetrachloride, BSP (sodium sulfobromophthalene; 75mg/kg) was administered intravenously. Thirty minutes later, the cardiac blood was collected, and GPT (glutamic-pyruvic transaminase) activity and the retention rate of BSP in the plasma were measured. Further, the liver injury immediately after the collection of the blood was visually observed and evaluated by the following score for liver damage index. 0: normal 2: Slightly injured 4: distinctly injured 6: remarkably injured

[2] = tested on: Acute Liver Injury Induced by D-Galactosamine; experiment: Protective effect on acute liver injury induced by D-galactosamine; assay type: in vivo, rats (SD strain); details: 50mg/kg orally twice daily for 6 days, D-galactosamine 200mg/kg x 3 i.p.; for Glucose / P-GPT: plasma 48 hours after first injection; for Glucose: D-Galactosamine alone 32±4, Normal 142±4; for P-GPT: D-Galactosamine alone 4825±590, Normal 29±2; for ALP: alkaline phosphatase in plasma, D-Galactosamine alone 176±6, Normal 500±63
Description: A test compound was dissolved or suspended in olive oil and orally administered twice daily for 6 days at a dose of 50mg/kg to rats (SD strain, ? , 225 ±15g, 7 weeks-old, n=5). On the 6th day, D-galactosamine (200mg/kg x 3) was intraperitoneally administered three times at 3-hour intervals. 48 Hours after the first injection of D-galactosamine, the animals were sacrificed by exsanguination from the abdominal aorta. The protective effect was evaluated by examining the biochemical parameters (p-GPT, glucose, alkaline phosphatase) in plasma.

[3] = tested on: Fatty Liver Induced by Carbon Tetrachloride; experiment: Therapeutic effect on fatty liver induced by carbon tetrachloride; assay type: in vivo, rats (SD strain); set-up: Apoprotein: unit not given here
Description: Carbon tetrachloride (1ml/kg) was subcutaneously administered to rats (SD strain, ? , 38 week-old, n=5) for 4 days. Upon expiration of 3 days from the administration of carbon tetrachloride, Compound 6 was orally given successively for 7 days at the dose of 50mg/kg. On the 8th day, the animals were sacrificed by exsanguination. The therapeutic effect was evaluated by examining the content of triglyceride in the liver and the concentration of apoprotein B in the plasma. […]

[4] = tested on: Protein Synthesis in Liver; experiment: Effect on protein synthesis in liver; assay type: in vivo, rats (Wister strain); details: 100mg/kg orally for 3 days
Description: Compound 6 was dissolved in olive oil and orally administered successively for 3 days at a dose of 100mg/kg to rats (Wister strain, ? , 180±10g, 6 week-old, n=5). 24 Hours after the administration of the test compound was completed, the animals were sacrificed. The effect on the protein synthesis in the liver was evaluated by determining the liver weight and protein content.

mice (ddY mice) = experiment: Acute toxicity test; assay type: in vivo; details: oral in olive oil, mortality one week after the administration, n=5
Description: A test compound was dissolved or suspended in olive oil and administered orally to mice (ddY mice, ? , 23±2g, n=5). The acute toxicity value (LD₅₀) was determined from the mortality one week after the administration.

[5] = 24.5 h, retention rate of BSP in plasma 30 minutes after BSP 75mg/kg i.v., read-out: % Prophylaxis BSP
[6] = plasma GPT about 24.5 hours after CCl4, read-out: % Prophylaxis p-GPT

For CC(=O)C(C(=O)c1nc2ccccc2[nH]1)=C1SC=CS1 [Compound 47, 2-(1,3-dithiol-2-ylidene)-1-(2-benzimidazolyl)-1,3-butanedione], which “Liver Damage Index” value [1] is on record?
The value was 2.4.

And the inhibition in vivo at 50 mg/kg [1, 5]?
The inhibition in vivo at 50 mg/kg was 103%.

What about the inhibition in vivo at 50 mg/kg [1, 6] of the same molecule?
Its inhibition in vivo at 50 mg/kg is 91%.

What about the Glucose [2] of the same molecule?
Its Glucose is 55 ± 2 mg/dL.

And the P-GPT [2]?
The P-GPT was 2938±694 U/l.

And the ALP [2]?
The ALP was 287±25 U/l.

Which results are given for CC(=O)C(C(=O)c1ccccc1)=C1SC=CS1 [Compound 6, 2-(1,3-dithiol-2-ylidene)-1-phenyl-1,3-butanedione]?
Liver Damage Index [1]: 0.4; inhibition in vivo at 50 mg/kg [1, 5]: 103%; inhibition in vivo at 50 mg/kg [1, 6]: 100%; effect for curing the fatty liver ([3]; 50mg/kg orally for 7 days, rats with CCl4-induced fatty liver, statement in words): significant effect for curing the fatty liver; Apoprotein ([3]; apoprotein B in plasma, carbon tetrachloride 1ml/kg s.c. for 4 days, compound 50mg/kg orally for 7 days, CCl4 alone 66± 2, Normal 125± 8): 112± 23; Triglyceride ([3]; carbon tetrachloride 1ml/kg s.c. for 4 days, compound 50mg/kg orally for 7 days, liver content on the 8th day, CCl4 alone 99± 6, Normal 33± 5): 33± 7 mg/g-liver; Glucose [2]: 81 ± 9 mg/dL; P-GPT [2]: 908±248 U/l; ALP [2]: 398±45 U/l; Liver Weight ([4]; 24 hours after last administration, Control 6.3±0.1): 8.6±0.3 g/100g b.w.; Liver Protein ([4]; 24 hours after last administration, Control 883±79): 1247±62 mg/100g b.w.; effect for stimulating the protein metabolic function of the liver ([4]; statement in words): substantial effect for stimulating the protein metabolic function of the liver; acute toxicity value (LD50) (mice (ddY mice)): at least 2 g
